{"source": "patent US20100298141A1", "about": "“SUBSTITUTED PYRIDINE N-OXIDE HERBICIDES” (E. I. DU PONT DE NEMOURS AND COMPANY, priority 2007, published 2010)", "key": {"barnyardgrass [1]": {"system": "barnyardgrass", "experiment": "Test A pre-/postemergence greenhouse test", "assay_type": "in vivo, Echinochloa crus-galli", "settings": "for Barnyardgrass plant response rating: 0 to 100 scale", "outline": "(§1)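 Visual injury ratings, made relative to untreated controls roughly ten days after treatment, cover both preemergence and postemergence application. Compounds in a surfactant-containing non-phytotoxic solvent were sprayed onto the soil surface after sowing and, simultaneously, onto young plants at the one- to two-leaf stage.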"}, "crabgrass [2]": {"system": "crabgrass", "experiment": "Test A pre-/postemergence greenhouse test", "assay_type": "in vivo, Digitaria sanguinalis", "settings": "for Crabgrass, Large plant response rating: 0 to 100 scale", "outline": "as §1"}, "giant foxtail": {"system": "giant foxtail", "experiment": "Test A pre-/postemergence greenhouse test", "assay_type": "in vivo, Setaria faberi", "settings": "for Foxtail, Giant plant response rating: 0 to 100 scale", "outline": "as §1"}, "morningglory": {"system": "morningglory", "experiment": "Test A pre-/postemergence greenhouse test", "assay_type": "in vivo, Ipomoea spp.", "settings": "for Morningglory plant response rating: 0 to 100 scale", "outline": "as §1"}, "Italian ryegrass": {"system": "Italian ryegrass", "experiment": "Test C pre-/postemergence test", "assay_type": "in vivo, Lolium multiflorum", "settings": "Preemergence", "outline": "(§2)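 Compounds in a non-phytotoxic solvent with surfactant applied preemergence to seeded pots and, at the same time, postemergence to plants 2–18 cm tall (1- to 4-leaf stage). Paddy tests: pots flooded to 3 cm, compound applied into the water, depth held throughout.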"}, "bermudagrass": {"system": "bermudagrass", "experiment": "Test C pre-/postemergence test", "assay_type": "in vivo, Cynodon dactylon", "outline": "as §2"}, "Surinam grass": {"system": "Surinam grass", "experiment": "Test C pre-/postemergence test", "assay_type": "in vivo, Brachiaria decumbens", "settings": "Preemergence", "outline": "as §2"}, "cocklebur": {"system": "cocklebur", "experiment": "Test C pre-/postemergence test", "assay_type": "in vivo, Xanthium strumarium", "outline": "as §2"}, "crabgrass [3]": {"system": "crabgrass", "experiment": "Test C pre-/postemergence test", "assay_type": "in vivo, Digitaria sanguinalis", "settings": "Preemergence", "outline": "as §2"}, "Goosegrass": {"system": "Goosegrass", "experiment": "Test C pre-/postemergence test", "assay_type": "in vivo, Eleusin indica", "settings": "Preemergence", "outline": "as §2"}, "kochia": {"system": "kochia", "experiment": "Test C pre-/postemergence test", "assay_type": "in vivo, Kochia scoparia", "settings": "Preemergence", "outline": "as §2"}, "lambsquarters": {"system": "lambsquarters", "experiment": "Test C pre-/postemergence test", "assay_type": "in vivo, Chenopodium album", "settings": "Preemergence", "outline": "as §2"}, "pigweed": {"system": "pigweed", "experiment": "Test C pre-/postemergence test", "assay_type": "in vivo, Amaranthus retroflexus", "settings": "Preemergence", "outline": "as §2"}, "soybean": {"system": "soybean", "experiment": "Test C pre-/postemergence test", "assay_type": "in vivo, Glycine max", "settings": "Preemergence", "outline": "as §2"}, "[4]": {"system": "common (oilseed) sunflower", "experiment": "Test C pre-/postemergence test", "assay_type": "in vivo, Helianthus annuus", "settings": "Preemergence", "outline": "as §2"}, "umbrella sedge": {"system": "umbrella sedge", "experiment": "Test C flooded paddy test", "assay_type": "in vivo, Cyperus difformis", "settings": "Flood", "outline": "(§3)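 Pots were flooded to 3 cm above the soil surface at treatment, compound applied directly to the paddy water, and that depth held throughout. Plants were kept in a greenhouse for 13 to 15 days, then visually rated against untreated controls.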"}, "barnyardgrass [5]": {"system": "barnyardgrass", "experiment": "Test C flooded paddy test", "assay_type": "in vivo, Echinochloa crus-galli", "settings": "Flood", "outline": "as §3"}, "[6]": {"settings": "Postemergence, 125 g ai/ha, 0 is no effect, 100 is complete control"}, "[7]": {"settings": "Postemergence, 500 g ai/ha, 0 is no effect, 100 is complete control"}, "[8]": {"settings": "Preemergence, 125 g ai/ha, 0 no effect, 100 complete control"}, "[9]": {"settings": "Preemergence, 500 g ai/ha, 0 to 100 scale where 0 is no effect and 100 is complete control"}, "[10]": {"settings": "31 g ai/ha, scale 0 to 100 (0 no effect, 100 complete control)"}, "[11]": {"settings": "Preemergence, 31 g ai/ha, scale 0 to 100 (0 no effect, 100 complete control)"}, "[12]": {"settings": "preemergence, 125 g ai/ha, scale 0 (no effect) to 100 (complete control)"}, "[13]": {"settings": "62 g ai/ha, scale 0 to 100, 0 no effect, 100 complete control, 13 to 15 days"}, "[14]": {"settings": "125 g ai/ha, scale 0 to 100, 0 no effect, 100 complete control, 13 to 15 days"}}, "data": [{"smiles": "Cn1nc(C(F)(F)F)c(CS(=O)(=O)c2ccc(Cl)c[n+]2[O-])c1Cl", "note": "[Compound 18]", "values": [{"measurement": "Barnyardgrass plant response rating", "setting": "barnyardgrass [1]; [6]", "value": 60}, {"measurement": "Barnyardgrass plant response rating", "setting": "barnyardgrass [1]; [7]", "value": 80}, {"measurement": "Barnyardgrass plant response rating", "setting": "barnyardgrass [1]; [8]", "value": 90}, {"measurement": "Plant response rating, Barnyardgrass", "setting": "barnyardgrass [1]; [9]", "value": 100}, {"measurement": "Crabgrass, Large plant response rating", "setting": "crabgrass [2]; [6]", "value": 60}, {"measurement": "Crabgrass, Large plant response rating", "setting": "crabgrass [2]; [7]", "value": 80}, {"measurement": "Crabgrass, Large plant response rating", "setting": "crabgrass [2]; [8]", "value": 80}, {"measurement": "Plant response rating, Crabgrass, Large", "setting": "crabgrass [2]; [9]", "value": 90}, {"measurement": "Foxtail, Giant plant response rating", "setting": "giant foxtail; [6]", "value": 60}, {"measurement": "Foxtail, Giant plant response rating", "setting": "giant foxtail; [7]", "value": 80}, {"measurement": "Foxtail, Giant plant response rating", "setting": "giant foxtail; [8]", "value": 90}, {"measurement": "Plant response rating, Foxtail, Giant", "setting": "giant foxtail; [9]", "value": 100}, {"measurement": "Morningglory plant response rating", "setting": "morningglory; [6]", "value": 0}, {"measurement": "Morningglory plant response rating", "setting": "morningglory; [7]", "value": 20}, {"measurement": "Morningglory plant response rating", "setting": "morningglory; [8]", "value": 0}, {"measurement": "Plant response rating, Morningglory", "setting": "morningglory; [9]", "value": 20}, {"measurement": "Ryegrass, Italian plant response rating", "setting": "Italian ryegrass; 62 g ai/ha, scale 0 to 100", "value": 0}, {"measurement": "Plant response rating, Ryegrass, Italian", "setting": "Italian ryegrass; [10]", "value": 0}, {"measurement": "Bermudagrass plant response rating", "setting": "bermudagrass; 62 g ai/ha, Preemergence, scale 0 to 100 (0 no effect, 100 complete control)", "value": 100}, {"measurement": "Plant response rating, Bermudagrass", "setting": "bermudagrass; [11]", "value": 90}, {"measurement": "Plant response rating (0 to 100), Bermudagrass", "setting": "bermudagrass; Preemergence, 250 g ai/ha", "value": 100}, {"measurement": "Bermudagrass plant response rating", "setting": "bermudagrass; [12]", "value": 100}, {"measurement": "Surinam Grass plant response rating", "setting": "Surinam grass; 62 g ai/ha, scale 0 to 100", "value": 0}, {"measurement": "Plant response rating, Surinam Grass", "setting": "Surinam grass; [10]", "value": 0}, {"measurement": "Cocklebur plant response rating", "setting": "cocklebur; 62 g ai/ha, Preemergence, scale 0 to 100", "value": 0}, {"measurement": "Plant response rating, Cocklebur", "setting": "cocklebur; [11]", "value": 0}, {"measurement": "Plant response rating (0 to 100), Cocklebur", "setting": "cocklebur; Preemergence, 250 g ai/ha", "value": 0}, {"measurement": "Cocklebur plant response rating", "setting": "cocklebur; [12]", "value": 0}, {"measurement": "Crabgrass, Large plant response rating", "setting": "crabgrass [3]; 62 g ai/ha, scale 0 to 100", "value": 100}, {"measurement": "Plant response rating, Crabgrass, Large", "setting": "crabgrass [3]; [10]", "value": 80}, {"measurement": "Plant response rating (0 to 100), Crabgrass, Large", "setting": "crabgrass [3]; 250 g ai/ha", "value": 100}, {"measurement": "Goosegrass plant response rating", "setting": "Goosegrass; 62 g ai/ha, scale 0 to 100", "value": 100}, {"measurement": "Plant response rating, Goosegrass", "setting": "Goosegrass; [10]", "value": 90}, {"measurement": "Plant response rating (0 to 100), Goosegrass", "setting": "Goosegrass; 250 g ai/ha", "value": 100}, {"measurement": "Kochia plant response rating", "setting": "kochia; 62 g ai/ha, scale 0 to 100", "value": 0}, {"measurement": "Plant response rating, Kochia", "setting": "kochia; [10]", "value": 0}, {"measurement": "Lambsquarters plant response rating", "setting": "lambsquarters; 62 g ai/ha, scale 0 to 100", "value": 0}, {"measurement": "Plant response rating, Lambsquarters", "setting": "lambsquarters; [10]", "value": 0}, {"measurement": "Pigweed plant response rating", "setting": "pigweed; 62 g ai/ha, scale 0 to 100", "value": 100}, {"measurement": "Plant response rating, Pigweed", "setting": "pigweed; [10]", "value": 100}, {"measurement": "Soybean plant response rating", "setting": "soybean; 62 g ai/ha, scale 0 to 100", "value": 0}, {"measurement": "Plant response rating, Soybean", "setting": "soybean; [10]", "value": 0}, {"measurement": "Sunflower plant response rating", "setting": "[4]; 62 g ai/ha, scale 0 to 100", "value": 0}, {"measurement": "Plant response rating, Sunflower", "setting": "[4]; [10]", "value": 0}, {"measurement": "Plant response rating, Sedge, Umbrella", "setting": "umbrella sedge; [10]", "value": 0}, {"measurement": "Plant response rating, Sedge, Umbrella", "setting": "umbrella sedge; [13]", "value": 0}, {"measurement": "Plant response rating, Sedge, Umbrella", "setting": "umbrella sedge; [14]", "value": 80}, {"measurement": "Plant response rating, Sedge, Umbrella", "setting": "umbrella sedge; 250 g ai/ha, scale 0 to 100, 0 no effect, 100 complete control, 13 to 15 days", "value": 85}, {"measurement": "Plant response rating, Barnyardgrass", "setting": "barnyardgrass [5]; [10]", "value": 0}, {"measurement": "Plant response rating, Barnyardgrass", "setting": "barnyardgrass [5]; [13]", "value": 30}, {"measurement": "Plant response rating, Barnyardgrass", "setting": "barnyardgrass [5]; [14]", "value": 75}, {"measurement": "Plant response rating, Barnyardgrass", "setting": "barnyardgrass [5]; 250 g ai/ha, scale 0 to 100 (0 no effect, 100 complete control)", "value": 85}]}]}
